What is called ED50 is the dose that gives a 50% effect, or the effect in half of the subjects.

The assay concerns Rattus norvegicus. The experiment in a line: Antihypertensive activity in po dosed renal hypertensive rat assessed as dose required to produce lowering of blood pressure to <= 130 mm after 2 to 24 hrs by photoelectric tensometric analysis. Format: functional.
With `COc1cc(/C=N/NC2=NCCc3ccccc32)cc(OC)c1O.Cl`, the ED50 was greater than 50 mg/kg.
For `NNC1=NCCc2ccccc21` the value was 30 mg/kg.
As for `F[B-](F)(F)F.[NH3+]NC1=NCC(O)c2ccccc21` (stereo unspecified), the ED50 is greater than 50 mg/kg.
For `Cl.NC1=NCCc2ccccc21` the value was greater than 50 mg/kg; for `CCCCCCNC1=NCCc2ccccc21.O=S(=O)(O)O`, greater than 50 mg/kg.
Consider `CN(C)CCNC1=NCCc2ccccc21.Cl`, for which the median effective dose (ED50) is greater than 50 mg/kg.
With `O=S(=O)(O)O.c1ccc2c(c1)CCN=C2NCc1ccncc1`, the 50% effective dose (ED50) is greater than 50 mg/kg.
For `COc1ccc(CCNC2=NCCc3ccccc32)cc1OC.O=S(=O)(O)O` the value was greater than 50 mg/kg; for `O=S(=O)(O)O.c1ccc2c(c1)CCN=C2NCCc1ccc2c(c1)OCO2`, greater than 50 mg/kg; for `Nc1ccc(CCNC2=NCCc3ccccc32)cc1Cl.O=S(=O)(O)O`, greater than 50 mg/kg.
For `COc1cc(CCNC2=NCCc3ccccc32)cc(OC)c1OC.O=S(=O)(O)O` the value was greater than 50 mg/kg; for `Cl.Oc1ccc(CCNC2=NCCc3ccccc32)cc1O`, greater than 50 mg/kg.
For `CCN(CC)CCOc1ccc(CNC2=NCCc3ccccc32)cc1.O=S(=O)(O)c1cccc2c(S(=O)(=O)O)cccc12` the value was greater than 50 mg/kg; for `COc1ccc(NC2=NCCc3ccccc32)cc1`, greater than 50 mg/kg.
Take `Cl.c1ccc2c(c1)CCN=C2N1CCCCC1`: the ED50 is greater than 50 mg/kg.
`O=S(=O)(O)c1cccc2c(S(=O)(=O)O)cccc12.c1ccc(CONC2=NCCc3ccccc32)cc1`: the ED50 was greater than 50 mg/kg.
For the compound `CN(C)NC1=NCCc2ccccc21.Cl`, the median effective dose (ED50) is greater than 50 mg/kg.
As for `CC(C)=NNC1=NCCc2ccccc21.O=S(=O)(O)O`, the median effective dose (ED50) worked out at 15 mg/kg.
As for `CCCC/C=N/NC1=NCCc2ccccc21.Cl`, the ED50 was greater than 50 mg/kg.
For `C/C=N/NC1=NCCc2ccccc21.O=S(=O)(O)O` the value was 15 mg/kg.
For `O=S(=O)(O)O.c1ccc2c(c1)CCN=C2NN=C1CCCCC1` the value was greater than 50 mg/kg; for `C/C=C/C(C)=N\NC1=NCCc2ccccc21.O=S(=O)(O)O`, greater than 50 mg/kg; for `C(=N\NC1=NCCc2ccccc21)/c1ccccc1.Cl`, greater than 50 mg/kg.
As to `COc1cccc(/C=N/NC2=NCCc3ccccc32)c1OC.Cl`, the 50% effective dose (ED50) is greater than 50 mg/kg.
For `CC1Cc2ccccc2C(NN)=N1.Cl` (stereo unspecified) the value was 40 mg/kg; for `NNc1nncc2ccccc12` [HYDRALAZINE], 10 mg/kg.

The values are drawn from ChEMBL document CHEMBL3272159, “Synthesis and antihypertensive activity of 1-amino-3,4-dihydroisoquinolines” (1977).
